The structures appear in SMILES notation.

Chain of HSD17B13 (Q7Z5P4 other isoform, or with tags, fused parts or gaps): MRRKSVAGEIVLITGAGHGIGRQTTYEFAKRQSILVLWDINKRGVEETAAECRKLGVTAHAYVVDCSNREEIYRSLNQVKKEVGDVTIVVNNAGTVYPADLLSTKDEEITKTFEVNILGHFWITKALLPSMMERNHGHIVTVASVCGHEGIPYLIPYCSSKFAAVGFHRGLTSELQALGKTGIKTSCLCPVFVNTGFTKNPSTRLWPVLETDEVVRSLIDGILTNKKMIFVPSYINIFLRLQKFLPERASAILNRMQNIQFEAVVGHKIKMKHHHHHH

This test concerns the target HSD17B13 (Homo sapiens (Human), UniProt Q7Z5P4). Briefly: HSD17B13 enzymatic inhibition assay (150 nM or 50 nM HSD17B13). It is filed as biochemical. The settings on record: 50 nM HSD17B13; read-out: Inhibition of 50 nM of HSD17B13 IC50.
As to `N#Cc1cccc2c1CCCC2NC(=O)c1ccc(C(F)(F)F)[nH]c1=O` (stereo not drawn) [Compound 549, N-(5-cyano-1,2,3,4-tetrahydronaphthalen-1-yl)-2-oxo-6-(trifluoromethyl)-1,2-dihydropyridine-3-carboxamide], the IC50 – broadly, the concentration that gives 50% inhibition – turned out to be 8370 nM.

`Cc1ccc(C(CC2CCCO2)NC(=O)c2ccc(C(F)(F)F)[nH]c2=O)cc1` (stereo not drawn) [Compound 550, 2-oxo-N-(2-(tetrahydrofuran-2-yl)-1-(p-tolyl)ethyl)-6-(trifluoromethyl)-1,2-dihydropyridine-3-carboxamide]: the IC50 was found to be 1600 nM.

Consider `Cc1ccc(C(CC2CCOCC2)NC(=O)c2ccc(C(F)(F)F)[nH]c2=O)cc1` (stereo not drawn) [Compound 551, 2-oxo-N-(2-(tetrahydro-2H-pyran-4-yl)-1-(p-tolyl)ethyl)-6-(trifluoromethyl)-1,2-dihydropyridine-3-carboxamide], for which the IC50 was found to be 2690 nM.

For `CC[C@H](C[C@@H](NC(=O)c1ccc(C(F)(F)F)[nH]c1=O)c1ccc(C)cc1)OC` [Compound 552, N-((1R,3R)-3-methoxy-1-(p-tolyl)pentyl)-2-oxo-6-(trifluoromethyl)-1,2-dihydropyridine-3-carboxamide], the IC50 is 590 nM.

For `CC[C@@H](C[C@@H](NC(=O)c1ccc(C(F)(F)F)[nH]c1=O)c1ccc(C)cc1)OC` [Compound 553, N-((1R,3S)-3-methoxy-1-(p-tolyl)pentyl)-2-oxo-6-(trifluoromethyl)-1,2-dihydropyridine-3-carboxamide], the IC50 worked out at 2080 nM.

As for `CC[C@@H](O)C[C@@H](NC(=O)c1ccc(C(F)(F)F)[nH]c1=O)c1ccc(C)cc1` [Compound 554, N-((1R,3R)-3-hydroxy-1-(p-tolyl)pentyl)-2-oxo-6-(trifluoromethyl)-1,2-dihydropyridine-3-carboxamide], the IC50 worked out at 2350 nM.

As to `CC[C@H](O)C[C@@H](NC(=O)c1ccc(C(F)(F)F)[nH]c1=O)c1ccc(C)cc1` [Compound 555, N-((1R,3S)-3-hydroxy-1-(p-tolyl)pentyl)-2-oxo-6-(trifluoromethyl)-1,2-dihydropyridine-3-carboxamide], the IC50 is > 10000 nM.

As for `Cc1ccc(C(CC2CCOC2)NC(=O)c2ccc(C(F)(F)F)[nH]c2=O)cc1` (stereo not drawn) [Compound 556, 2-oxo-N-(2-(tetrahydrofuran-3-yl)-1-(p-tolyl)ethyl)-6-(trifluoromethyl)-1,2-dihydropyridine-3-carboxamide], the IC50 was 2350 nM.

Regarding `Cc1ccc(C(NC(=O)c2ccc(C(F)(F)F)[nH]c2=O)C2CCOCC2)cc1` (stereo not drawn) [Compound 558, 2-oxo-N-((tetrahydro-2H-pyran-4-yl)(p-tolyl)methyl)-6-(trifluoromethyl)-1,2-dihydropyridine-3-carboxamide], the IC50 was 4570 nM.
